How the values were obtained:
[1] = tested on: PC3-PSMA xenograft; experiment: In vivo combination study of ^225Ac-Compound I and olaparib in PC3-PSMA tumor xenograft bearing mouse model
Procedure: An in vivo combination study was conducted with ^225Ac-Compound I and olaparib using a PSMA overexpressing PC3 (PC3-PSMA, prostate cancer) tumor xenograft bearing mouse model. Groups of mice (n=5/group) were treated with ^225Ac-Compound I administered as a single dose (intravenous), at a dose sub-optimal for monotherapeutic efficacy (1.23 MBq/kg or 1 μCi, based on 30 g mice). Additional groups of mice (n=5/group) were dosed daily with olaparib (oral gavage) using a dose range of 25, 50, or 100 mg/kg for 28 consecutive days in combination with ^225Ac-Compound I. Olaparib dosing started on the same day that ^225Ac-Compound I was dosed (FIG. 1). Olaparib monotherapy and vehicle control groups (n=5/group) were included as controls. Tumor measurements were taken 2-3 times per week and used to calculate tumor volume. Study duration was for 50 days after initial therapeutic administration.
Tumor growth in study animals was tracked over time and expressed as Relative Tumor Volume (RTV; tumor volume on day X divided by initial tumor volume on day 0) (FIGS. 2A-2C). Single agent olaparib monotherapy was found ineffective at all dose levels tested.

[2] = tested on: PC3-PSMA xenograft; experiment: In vivo combination study of ^225Ac-Compound I and elimusertib in PC3-PSMA tumor xenograft bearing mouse model; conditions: 1.23 MBq/kg [^225Ac]-Compound I single i.v. dose combined with elimusertib 5, 20 and 40 mg/kg; compared to either monotherapy or vehicle
Procedure: Groups of mice (n=5/group) were treated with ^225Ac-Compound I, administered as a single dose (intravenous), at a dose sub-optimal for monotherapeutic efficacy (1.23 MBq/kg or 1 μCi, based on 30 g mice). […] Tumor measurements were taken 2-3 times per week and used to calculate tumor volume. Study duration was 61 days after initial therapeutic administration.
Tumor growth was tracked over time and expressed as Relative Tumor Volume (RTV; tumor volume on day X divided by initial tumor volume on day 0) (FIGS. 4A-4C).

SMILES | Tumor growth inhibition (Relative Tumor Volume) ([1]; 1.23 MBq/kg [^225Ac]-Compound I single i.v. dose combined with olaparib 25, 50 or 100 mg/kg daily, compared to either monotherapy or vehicle) | Tumor growth inhibition (Relative Tumor Volume) [2] | Tumor growth (Relative Tumor Volume) ([1]; single agent olaparib monotherapy, oral gavage daily for 28 days, all dose levels tested (25, 50, 100 mg/kg))
O=C(O)CC[C@H](NC(=O)N[C@@H](CCCCNC(=O)CCCCCCC(=O)NCCCC[C@@H](NC(=O)[C@@H](Cc1ccccc1)NC(=O)[C@@H](Cc1ccc(O)c(I)c1)NC(=O)CCC(C(=O)O)N1CCN(CC(=O)O)CCN(CC(=O)O)CCN(CC(=O)O)CC1)C(=O)O)C(=O)O)C(=O)O (stereo partly drawn) [[^225Ac]-Compound I, metal not drawn] | enhanced tumor growth inhibition | enhanced tumor growth inhibition | 
O=C(c1cc(Cc2n[nH]c(=O)c3ccccc23)ccc1F)N1CCN(C(=O)C2CC2)CC1 [olaparib, reference compound] |  |  | ineffective

Source: US20260241048A1, “PSMA-TARGETED RADIOPHARMACEUTICALS AND DNA DAMAGE RESPONSE INHIBITOR COMBINATION THERAPY” (FUSION PHARMACEUTICALS INC., priority 2023, published 2026)
